Like-named read-outs stand apart in the source and are kept apart here.
Tests used:
[1] = system: myeloma cell lines (JJN3, L363, OCI-MY5, and U266); assay: MTT comparison with clinical anti-myeloma agents, four cell lines; type: cell-based, human; settings: 24 and 48 hours
Procedure: (§1) Myeloma cells were suspended in fresh medium at […] and seeded into 96-well plates in 50-μl aliquots (10,000 cells/well). After treating cells in each well with the appropriate compound (50-μl aliquots of 2× stock solution) and medium control, the methylthiazolyldiphenyl-tetrazolium bromide (MTT) assay kit (Promega, Madison, Wis.) was used to determine cell proliferation, according to manufacturer's instructions. Briefly, dye solution was added to each well (15 μl/well) and incubated for 4 hours at 37° C. and 5% CO2; 100 μl of the solubilization solution/stop mix was then added. The plates were read at 570 nm in a plate reader, and the A570 nm values were corrected by A650 nm. All experiments were conducted in triplicate.
(§2) In vitro comparison of EPED3 to ellipticine and four anti-myeloma agents commonly used in clinical treatment regimens was carried out with four myeloma cell lines (JJN3, L363, OCI-MY5, and U266). EPED3, ellipticine, Dox, dexamethasome, VP-16-213, and Velcade were applied in a two-fold dilution series ranging from 0.1 to 6.4 μM. Cell proliferation was assessed using MTT assays 24 and 48 hours after initiating treatments.

[2] = system: 12 myeloma cell lines (Ark, BW288, CAG, Delta47, DF15, JJN3, kms11, L363, opm2, RPMI8226, U266 and XG1); assay: Comparative study with existing anti-myeloma drugs (CellTiter-Glo); type: cell-based, human; set-up: time to inhibition of cell proliferation: dose or concentration left out as unconfirmed
Source text: The results obtained from these controls are pooled together in the figure (●). The dose of each compound was set […].
Comparative study of NSC 338258 with existing anti-myeloma drugs Myeloma cell lines were exposed to NSC 338258 and existing anti myeloma drugs, Adriamycin® (Doxorubicin Hydrochloride) and Etoposide (VP-16-213) in ninety six well culture plates. The concentration of each compound was set […]. […] The cell growth was near zero in the following days (day 4 onwards; FIG. 6). It was also observed that 12 myeloma cell lines (Ark, BW288, CAG, Delta47, DF15, JJN3, kms11, L363, opm2, RPMI8226, U266 and XG1) responded to the same dosage (0.2 μM) of NSC 338258, VP-16-213 and Adriamycin in 5 days.

U266 myeloma cell line = system: U266 myeloma cell line; set-up: cell viability (CellTiter-Glo luminescent assay): dose or concentration left out as unconfirmed; settings: for cell viability (CellTiter-Glo luminescent assay): U266
Procedure: The dosage of each derivative was set at 2, 0.2 and 0.02 mM. A cell culture medium control and 0.5% DMSO control was maintained in each experiment. The cell viability was tested each day over a period of five days using the CellTiter-Glo luminescent cell viability assay kit from Promega Co.
U266 cell line was one of 12 myeloma cell lines used in screening of anti-myeloma agents. In FIG. 10A, cells were treated with 14 ellipticine derivatives (0.5 mM) obtained from the DTP; control cells were untreated. Ellipticine derivatives are coded with NSC identifiers. For 5 days, cell viability was measured every 24 hours using CellTiter-Glo Luminescent Assay. […] In FIG. 10B, U266 cells, along with six other myeloma cell lines, were co-cultured in direct contact with human fetal bone mesenchymal cells and treated with EPED3 (0.5 mM and 2 mM) or Velcade (0.5 mM); control cells were untreated. Cell proliferation was assessed by MTT assay every 24 hours for 5 days. […] Error bars indicate standard deviation.
Cell Titer-Glo luminescent cell viability assay kit from Promega Co (Madison, Wis.) was used to determine cell growth inhibition by the various compounds tested. The kit determines cell viability by quantifying the amount of ATP present in the cell culture medium. Presence of ATP signals the presence of metabolically active cells (3). The intensity of luminescence was measured by a computerized luminometer (Promega, Co. Madison, Wis.). Each well was read five times within 30 minutes of adding Cell Titer-Glo reagent mixture.
Cells were contacted with the antineoplastic agents in ninety six well culture plates. The concentration of each neoplastic agent was maintained a constant. A cell culture medium control and 0.5% DMSO control were maintained in each set of experiments. The cell viability was tested every day using the CellTiter-Glo luminescent cell viability kit from Promega Co. (Madison, Wis.) for a period of five days.

[3] = NCI in vivo screening data; cited from earlier work
[4] = 50 mg/kg; intraperitoneal injection; P388 Leukemia-bearing CD2F1 mice; cited from earlier work
NCI-60 cancer panel = settings: average across the cell lines of the concentration at which growth is inhibited 50%; unit in the High Conc. footnote; cited from earlier work
U266 cells = assay: MTT dose response to anti-myeloma agents, U266; type: cell-based, human; settings: 24 and 48 hours
Procedure: FIGS. 12A-12B show dose response of myeloma cells to common anti-myeloma agents used in clinics. U266 was one of 4 myeloma cell lines exposed to a panel of anti-myeloma agents in 2-fold titration ([…]). MTT assays were performed to assess cell proliferation inhibition for 24 hours (FIG. 12A) and 48 hours (FIG. 12B). […] Error bars indicate standard deviation.
as §1, §2

In the case of `Cc1c2ccncc2c(C)c2c1[nH]c1ccc(OCCN(C)C)cc12` [NSC 338258, ellipticine, 9-dimethyl amino-ethoxy-], the “concentration at which cell viability is inhibited as effectively as Velcade” value [1] is reported as 0.4 µM, the “time to inhibition of cell proliferation” value [2] is reported as at most 24 h and the “response of 12 myeloma cell lines” value ([2]; 0.2 μM, in 5 days) is reported as “responded”. For the same molecule, the “cytotoxic activity on U266 cells” value (U266 myeloma cell line) was “drastic cytotoxic activity”, the “cell viability (CellTiter-Glo luminescent assay)” value (U266 myeloma cell line; 0.02, Day 1) was 26,346 and the “cell viability (CellTiter-Glo luminescent assay)” value (U266 myeloma cell line; 0.02, Day 2) was 37,946. For the same molecule, the “cell viability (CellTiter-Glo luminescent assay)” value (U266 myeloma cell line; 0.02, Day 3) was 43,097, the “cell viability (CellTiter-Glo luminescent assay)” value (U266 myeloma cell line; 0.02, Day 4) was 74,106 and the “cell viability (CellTiter-Glo luminescent assay)” value (U266 myeloma cell line; 0.02, Day 5) was 86,287. For the same molecule, the “cell viability (CellTiter-Glo luminescent assay)” value (U266 myeloma cell line; 0.2, Day 1) was 5,906, the “cell viability (CellTiter-Glo luminescent assay)” value (U266 myeloma cell line; 0.2, Day 2) was 1,414 and the “cell viability (CellTiter-Glo luminescent assay)” value (U266 myeloma cell line; 0.2, Day 3) was 515. The “cell viability (CellTiter-Glo luminescent assay)” value (U266 myeloma cell line; 0.2, Day 4) was 291, the “cell viability (CellTiter-Glo luminescent assay)” value (U266 myeloma cell line; 0.2, Day 5) was 101 and the “cell viability (CellTiter-Glo luminescent assay)” value (U266 myeloma cell line; 2, Day 1) was 2,559. For the same molecule, the “cell viability (CellTiter-Glo luminescent assay)” value (U266 myeloma cell line; 2, Day 2) was 691, the “cell viability (CellTiter-Glo luminescent assay)” value (U266 myeloma cell line; 2, Day 3) was 172 and the “cell viability (CellTiter-Glo luminescent assay)” value (U266 myeloma cell line; 2, Day 4) was 183. For the same molecule, the “cell viability (CellTiter-Glo luminescent assay)” value (U266 myeloma cell line; 2, Day 5) was 104, the “dosages for animals surviving the toxicity of the compounds” value [3] was 25.0 mg/kg body weight and the “animals survived EPED3 toxicity for at least 5 days” value [4] was “five out of six”. For the same molecule, the “Mean GI50” value (NCI-60 cancer panel) was −6.57 log^10 molar, the “concentration with better efficacy on reduction of cell metabolic activity” value (U266 cells; U266) was at least 0.4 µM and the “concentration at which cell proliferation stopped” value (U266 cells; U266, MTT) was 0.2 µM.
For `CC(C)C[C@H](NC(=O)[C@H](Cc1ccccc1)NC(=O)c1cnccn1)B(O)O` [Velcade, bortezomib, reference compound], the “concentration of efficient killing of U266 cells” value (U266 cells; without co-culture, MTT) was “less than 0.1 μM”.

Reference: patent publication US20070027175A1, “Antineoplastic activities of ellipticine and its derivatives” (priority 2005, published 2007)
